Laboratory results reported in patent US11660290B2, “Affinity based drug release formulations” (McMaster University, priority 2016, dated 2023).

Columns and labels:
[1] = target: Alexa-Fluor 488 streptavidin (Streptomyces avidinii, UniProt P22629); assay: Release study of fluorescent streptavidin from agarose-desthiobiotin hydrogels; conditions: for release of fluorescent streptavidin from the hydrogel (rate, in words): 1 wt % Ag-D gel, insoluble biotin derivative, PBS
Description: Ag-D was dissolved in 0.1M PBS at 2 wt %, Alexa-Fluor 488 streptavidin was subsequently added and the mixture was incubated at 37° C. for 2 h. […] Gels were cured at 4 C for 20 min to 1 hr and initial fluorescent readings of the gel were taken. 200 uL of PBS was subsequently dispensed overtop of the gels and collected and replenished at specific time intervals. The loss of fluorescence as well as the released fluorescent streptavidin was measured at specific time points (FIGS. 5B and 6).

HUVEC = tested on: HUVEC
Description: Additionally, toxicity studies were performed using the MTS assay using HUVEC, assessing the toxicity of the components of the drug delivery system as well as the complete drug delivery system (FIGS. 11 A and B).

[2] = Transparency of agarose hydrogels with solid suspension of oleylbiotin; format: physicochemical; conditions: solid suspension in agarose hydrogel

Alexa-Fluor 488 streptavidin, sequence (P22629 25-183): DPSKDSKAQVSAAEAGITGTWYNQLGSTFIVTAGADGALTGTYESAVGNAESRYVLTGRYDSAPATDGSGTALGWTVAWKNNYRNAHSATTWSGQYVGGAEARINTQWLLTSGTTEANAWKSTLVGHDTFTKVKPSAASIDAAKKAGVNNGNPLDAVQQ

| Molecule | release of fluorescent streptavidin from the hydrogel (rate, in words) [1] | toxicity of single components of the drug delivery system (HUVEC) | concentration that did not decrease the transparency of agarose gels [2] | time over which oleylbiotin concentration modulates the release of streptavidin ([1]; various oleylbiotin concentrations, system of Example 1) | duration of streptavidin release (extrapolation of preliminary experiments) ([1]; wild-type streptavidin) |
| --- | --- | --- | --- | --- | --- |
| Tert-butyl biotin | slower release | – | – | – | – |
| O=C(O)CCCC[C@@H]1SC[C@@H]2NC(=O)N[C@@H]21 [biotin, reference compound] | most rapid release | – | – | – | – |
| oleyl-biotin | slowest and longest release | None of the components display any inherent toxicity except for the solid suspension of oleylbiotin | ≤ 80 µM | at least 150 days | > 100 days |
